Converted amounts (≈) assume the structure as drawn. Values belong to the compound of their own block, whether it stands above or below them.
Experiments:
[1] = Binding affinity to D-Ala-D-Ala assessed as dissociation constant
Neisseria gonorrhoeae = assay: Antibacterial activity against Neisseria gonorrhoeae ATCC 49226 assessed as reduction in bacterial growth; type: functional
Staphylococcus aureus [2] = assay: Antibacterial activity against methicillin-Staphylococcus aureus ATCC 43300 assessed as reduction in bacterial growth measured after 24 hrs by broth microdilution method; type: functional
[3] = Inhibition of Bordetella pertussis Adenylate cyclase toxin
Acinetobacter baumannii [4] = assay: Antibacterial activity against Acinetobacter baumannii assessed as reduction in bacterial growth by Mueller-Hinton broth microdilution method; type: functional, organism-based
Staphylococcus aureus [5] = assay: Antibacterial activity against methicillin-resistant Staphylococcus aureus assessed as reduction in bacterial cell growth incubated for 24 hrs by broth microdilution method; type: functional
[6] = Binding affinity to Escherichia coli ThiM TPP riboswitch assessed as dissociation constant
[7] = Inhibition of GIM1 (unknown origin)
Staphylococcus aureus [8] = assay: Antibacterial activity against Staphylococcus aureus ATCC 25923 assessed as reduction in microbial growth after 24 hrs by two-fold serial dilution method; type: functional
Candida albicans [9] = assay: Antifungal activity against Candida albicans ATCC 28367 assessed as reduction in fungal growth incubated for 24 hrs by CLSI based analysis; type: functional
Bacillus subtilis [10] = assay: Antibacterial activity against Bacillus subtilis ATCC 6633 assessed as minimum bactericidal concentration incubated for 24 hrs; type: functional
Nakaseomyces glabratus = assay: Antifungal activity against Candida glabrata ATCC 15126 assessed as reduction in fungal growth incubated for 24 hrs by CLSI based analysis; type: functional
Salmonella typhimurium = assay: Antibacterial activity against Salmonella typhimurium DT104 ATCC 14028 assessed as reduction in microbial growth measured after 24 hrs by CLSI-based method; type: functional, Salmonella enterica subsp. enterica serovar Typhimurium; conditions: Salmonella enterica
Escherichia coli [11] = assay: Antibacterial activity against Escherichia coli assessed as minimum bactericidal concentration incubated for 24 hrs; type: functional
Staphylococcus aureus [12] = assay: Bactericidal activity against Staphylococcus aureus ATCC 25923 assessed as reduction in bacterial cell growth incubated for 24 hrs by CLSI-based analysis; type: functional
Escherichia coli [13] = assay: Antibacterial activity against Escherichia coli JW 1772 assessed as reduction in microbial growth after 24 hrs by two-fold serial dilution method; type: functional
Bacillus subtilis [14] = assay: Antibacterial activity against Bacillus subtilis ATCC 6633 assessed as reduction in microbial growth after 24 hrs by two-fold serial dilution method; type: functional
Escherichia coli [15] = assay: Antibacterial activity against Escherichia coli assessed as reduction in bacterial growth; type: functional
Bacillus subtilis [16] = assay: Antibacterial activity against Bacillus subtilis assessed as reduction in bacterial growth; type: functional
Pseudomonas aeruginosa [17] = assay: Antibacterial activity against Pseudomonas aeruginosa assessed as reduction in bacterial growth; type: functional
Enterococcus durans = assay: Antibacterial activity against Enterococcus durans assessed as reduction in bacterial growth; type: functional
Plasmodium falciparum = assay: Antiplasmodial activity against Plasmodium falciparum assessed as parasitic growth inhibition; type: functional, organism-based
Staphylococcus aureus [18] = assay: Antibacterial activity against methicillin-resistant Staphylococcus aureus assessed as inhibition of cell growth; type: functional
Escherichia coli [19] = assay: Antibacterial activity against Escherichia coli ATCC 8730 assessed as reduction in bacterial cell growth measured after 24 hrs by microplate reader based analysis; type: functional
Klebsiella pneumoniae [20] = assay: Antibacterial activity against carbapenem resistance Klebsiella pneumoniae ATCC BAA-1705 assessed as inhibition of microbial growth measured after 24 hrs by microplate reader analysis; type: functional
Enterococcus faecium = assay: Antibacterial activity against Enterococcus faecium assessed as bacterial growth inhibition; type: functional
Enterococcus faecalis [21] = assay: Antibacterial activity against Enterococcus faecalis assessed as bacterial growth inhibition; type: functional
Enterococcus faecalis [22] = assay: Antibacterial activity against Enterococcus faecalis assessed as inhibition of bacterial growth measured after 24 hrs by CLSI-based microdilution method; type: functional
Pseudomonas aeruginosa [23] = assay: Antibacterial activity against Pseudomonas aeruginosa assessed as inhibition of bacterial growth measured after 24 hrs by CLSI-based microdilution method; type: functional
Escherichia coli [24] = assay: Antibacterial activity against Escherichia coli assessed as reduction in bacterial growth measured after 24 hrs by CLSI-based Mueller-Hinton broth dilution method; type: functional
Staphylococcus aureus [25] = assay: Antibacterial activity against Staphylococcus aureus assessed as inhibition of bacterial growth measured after 24 hrs by CLSI-based microdilution method; type: functional
Klebsiella pneumoniae [26] = assay: Antibacterial activity against Klebsiella pneumonia assessed as inhibition of bacterial growth measured after 24 hrs by CLSI-based microdilution method; type: functional
Acinetobacter baumannii [27] = assay: Antibacterial activity against Acinetobacter baumannii assessed as reduction in bacterial growth measured after 24 hrs by Mueller-Hinton broth dilution method; type: functional
[28] = Binding affinity to Sporosarcina pasteurii Urease assessed as inhibition constant
Escherichia coli [29] = assay: Antibacterial activity against Escherichia coli assessed as zone of inhibition; type: functional
Klebsiella aerogenes = assay: Antibacterial activity against Enterobacter aerogenes assessed as zone of inhibition; type: functional
Carbonic anhydrase 2 [30] = molecular target: T1, Carbonic anhydrase 2 (Homo sapiens, UniProt P00918); assay: Binding affinity to CA2 (unknown origin) assessed as inhibition constant
Carbonic anhydrase 2 [31] = molecular target: T1, Carbonic anhydrase 2; assay: Binding affinity to human CA2 in U2OS cells assessed as inhibition constant; type: cell-based
Escherichia coli [32] = assay: Antibacterial activity against Escherichia coli ATCC 25922 assessed as reduction in microbial growth measured after 24 hrs by Mueller-Hinton broth based two-fold serial dilution method; type: functional
Acinetobacter baumannii [33] = assay: Antibacterial activity against Acinetobacter baumannii assessed as reduction in microbial growth measured after 24 hrs by Mueller-Hinton broth based two-fold serial dilution method; type: functional
Staphylococcus aureus [34] = assay: Antibacterial activity against Staphylococcus aureus ATCC 25900 assessed as reduction in microbial growth measured after 24 hrs by Mueller-Hinton broth based two-fold serial dilution method; type: functional
Bacillus cereus = assay: Antibacterial activity against Bacillus cereus assessed as reduction in microbial growth measured after 24 hrs by Mueller-Hinton broth based two-fold serial dilution method; type: functional
Pseudomonas aeruginosa [35] = assay: Antibacterial activity against Pseudomonas aeruginosa ATCC 27853 assessed as reduction in microbial growth measured after 24 hrs by Mueller-Hinton broth based two-fold serial dilution method; type: functional
Candida albicans [36] = assay: Antibacterial activity against Candida albicans assessed as reduction in microbial growth measured after 24 hrs by Mueller-Hinton broth based two-fold serial dilution method; type: functional
[37] = Inhibition of Bordetella pertussis Adenylate cyclase toxin in mouse J774.A1 cells; type: cell-based
Staphylococcus aureus [38] = assay: Antibacterial activity against methicillin-susceptible Staphylococcus aureus assessed as reduction in bacterial cell growth; type: functional

SMILES: CCC(CP(=O)(O)C(C)N)C(=O)O (stereo not drawn)
- Ki [1]: 90 nM

- MIC (Neisseria gonorrhoeae): 4 ng/mL (≈ 0.00253 µM)
SMILES: C=C(C/C=C(\C)CCC=C(C)C)CCC(C)(C)/C=C/CC/C(C)=C\CO[C@H](COP(=O)(O)O[C@H]1O[C@H](C(N)=O)[C@@](C)(O)[C@H](OC(N)=O)[C@H]1O[C@@H]1O[C@H](CO[C@@H]2O[C@H](CO)[C@@H](O)[C@H](O)[C@H]2O)[C@@H](O[C@@H]2O[C@H](C)[C@@H](O[C@@H]3O[C@H](C(=O)NC4=C(O)CCC4=O)[C@H](O)[C@H](O)[C@H]3O)[C@H](O)[C@H]2NC(C)=O)[C@H](O)[C@H]1NC(C)=O)C(=O)O

- MIC (Staphylococcus aureus [2]): 0.25 µg/mL
SMILES: CS(=O)(=O)[O-].O=C(CCc1ccc(O)c(O)c1)NCCCCCCCCCC[P+](c1ccccc1)(c1ccccc1)c1ccccc1

SMILES: CC(C)OC(=O)[C@H](Cc1ccccc1)NP(=O)(COCCn1cnc2c(N)nc(F)nc21)N[C@@H](Cc1ccccc1)C(=O)OC(C)C
- IC50 [3]: 145 nM

SMILES: CCCCCCCCCC[P+](CCCCCC[P+](CCCCCCCCCC)(c1ccccc1)c1ccccc1)(c1ccccc1)c1ccccc1
- IC50 (Acinetobacter baumannii [4]): 3000 nM

SMILES: CCCCCC[P+](/C=C(\c1ccccc1)c1cc(Cl)ccc1O)(c1ccccc1OC)c1ccccc1OC
- MIC (Staphylococcus aureus [5]): < 1 µM

SMILES: Cc1ncc(C[n+]2csc(CCOP(=O)(O)CP(=O)(O)O)c2C)c(N)n1
- Kd [6]: 20 nM

SMILES: COP(=O)(CCSC(C)=O)NCc1ccccn1 (stereo not drawn)
- IC50 [7]: 86 µM

- MIC (Staphylococcus aureus [8]): 0.1 µg/mL
- MIC (Candida albicans [9]): 0.1 µg/mL (≈ 0.334 µM)
- MIC (Nakaseomyces glabratus): 0.1 µg/mL (≈ 0.334 µM)
- MIC (Salmonella typhimurium): 0.1 µg/mL
- MIC (Escherichia coli [13]): 0.1 µg/mL
- MIC (Bacillus subtilis [14]): 0.1 µg/mL
SMILES: O=P(c1ccccc1)(c1ccccc1)C1CCC/C1=N\O (stereo not drawn)
- MBC (Bacillus subtilis [10]): 2 µg/mL (≈ 6.68 µM)
- MBC (Escherichia coli [11]): 2 µg/mL (≈ 6.68 µM)
- MBC (Staphylococcus aureus [12]): 2 µg/mL (≈ 6.68 µM)

- MIC (Escherichia coli [15]): 0.15 µg/mL (≈ 0.451 µM)
- MIC (Bacillus subtilis [16]): 0.15 µg/mL (≈ 0.451 µM)
- MIC (Pseudomonas aeruginosa [17]): 0.15 µg/mL (≈ 0.451 µM)
- MIC (Enterococcus durans): 0.15 µg/mL (≈ 0.451 µM)
SMILES: Cn1nccc1CP(=O)(Cc1ccnn1C)Cc1ccnn1C

SMILES: CCCCCCCC(=O)OCOP(=O)(CCCC(=O)N(C)O)OCOC(=O)CCCCCCC
- IC50 (Plasmodium falciparum): 50 nM

SMILES: C[C@H](N)C(=O)N[C@@H](C)C(=O)N[C@@H](C)P(=O)(O)O
- MIC90 (Staphylococcus aureus [18]): 8 µg/mL (≈ 29.9 µM)
- MIC90 (Escherichia coli [19]): 0.25 µg/mL (≈ 0.936 µM)
- MIC90 (Klebsiella pneumoniae [20]): 4 µg/mL
- MIC90 (Enterococcus faecium): 2 µg/mL (≈ 7.48 µM)
- MIC90 (Enterococcus faecalis [21]): 0.5 µg/mL (≈ 1.87 µM)

SMILES: Cc1ncc(Cn2cc(CCOP(=O)(O)CP(=O)(O)O)nn2)c(N)n1
- Kd [6]: 9 nM

SMILES: CCCCc1nc(Cl)c(C(Nc2ccc(S(N)(=O)=O)cc2)P(=O)(OCC)OCC)n1Cc1ccc(Cl)cc1 (stereo not drawn)
- MIC (Enterococcus faecalis [22]): 4 µg/mL (≈ 6.63 µM)
- MIC (Pseudomonas aeruginosa [23]): 4 µg/mL (≈ 6.63 µM)
- MIC (Escherichia coli [24]): 2 µg/mL (≈ 3.31 µM)
- MIC (Staphylococcus aureus [25]): 4 µg/mL (≈ 6.63 µM)
- MIC (Klebsiella pneumoniae [26]): 4 µg/mL (≈ 6.63 µM)

- MIC (Acinetobacter baumannii [27]): 6.25 µM
SMILES: CCCCCCCCCCCC[P+](c1ccccc1)(c1ccccc1)c1ccccc1

SMILES: CN(C)CP(=O)(O)O
- Ki [28]: 13 µM

SMILES: CCCCCCCC[P+](CCCC)(CCCCCCCC)CCCCCCCC.CS(=O)(=O)[O-]
- inhibition zone (IZ) (Escherichia coli [29]): 14 mm
- inhibition zone (IZ) (Klebsiella aerogenes): 14 mm

SMILES: O/N=C1\CCCC1P(=S)(c1ccccc1)c1ccccc1 (stereo not drawn)
- MIC (Staphylococcus aureus [8]): 0.1 µg/mL
- MIC (Candida albicans [9]): 0.1 µg/mL (≈ 0.317 µM)
- MBC (Bacillus subtilis [10]): 2 µg/mL (≈ 6.34 µM)
- MIC (Nakaseomyces glabratus): 0.1 µg/mL (≈ 0.317 µM)
- MIC (Salmonella typhimurium): 0.1 µg/mL
- MBC (Escherichia coli [11]): 2 µg/mL (≈ 6.34 µM)
- MBC (Staphylococcus aureus [12]): 2 µg/mL (≈ 6.34 µM)
- MIC (Escherichia coli [13]): 0.1 µg/mL
- MIC (Bacillus subtilis [14]): 0.1 µg/mL

SMILES: COCCOP(N)(=O)c1ccccc1 (stereo not drawn)
- Ki (Carbonic anhydrase 2 [30]): 20 nM
- Ki (Carbonic anhydrase 2 [31]): 32.8 µM

SMILES: CCOP(=O)(OCC)C(Nc1ncc(-c2cc3ccccc3oc2=O)s1)c1ccccc1Br (stereo not drawn)
- MIC (Escherichia coli [32]): 0.125 µg/mL
- MIC (Acinetobacter baumannii [33]): 0.125 µg/mL
- MIC (Staphylococcus aureus [34]): 0.125 µg/mL
- MIC (Bacillus cereus): 0.125 µg/mL
- MIC (Pseudomonas aeruginosa [35]): 0.125 µg/mL
- MIC (Candida albicans [36]): 0.125 µg/mL

SMILES: CN(C)CP(C)(=O)O [(DIMETHYLAMINO)METHYL(METHYL)PHOSPHINIC ACID]
- Ki [28]: 0.62 µM

SMILES: Nc1ncnc2c1ncn2CCOCP(=O)(O)OP(=O)(O)OP(=O)(O)O [ADEFOVIR DIPHOSPHATE]
- IC50 [37]: 150 nM
- IC50 [3]: 18 nM

SMILES: CCCCCCCCCC[P+](C)(C)CCCCCCCCCC.[Cl-] [DIDECYLDIMETHYLPHOSPHONIUM CHLORIDE]
- MIC (Staphylococcus aureus [38]): 0.78 µg/mL
